The results in this text go back to ChEMBL document CHEMBL5143567, “Dose Number as a Tool to Guide Lead Optimization for Orally Bioavailable Compounds in Drug Discovery” (J Med Chem, 2022).

Values after ≈ are worked out from the molar mass of the structure shown. A value given as a limit tells only on which side of the number the result lay.

Data set [1] in a line: Aqueous solubility of the compound in FaSSIF. Type of data set: physicochemical.
Data set [2] in a line: Permeability in pig LLC-PK1 cells. Type of data set: ADME, cell-based, Sus scrofa. The settings on record: read-out: permeability.
Data set [3] can be described thus: Permeability in MDCK-II cells. The settings on record: dog, read-out: permeability. It is filed as ADME, cell-based, Canis lupus familiaris.
A short description of data set [4]: Aqueous solubility of the compound. As to conditions: buffer. It is filed as physicochemical.
A short description of data set [5]: Permeability in rat jejunum. It is filed as ADME, tissue-based. As to conditions: read-out: permeability.
The nature of another data set: physchem. As to conditions: phosphate buffer, pH 6.8.
Data set [6] in a line: Permeability in human Caco-2 cells. Type of data set: ADME, cell-based. As to conditions: read-out: permeability. In general terms: Caco-2 monolayers are a common model of the intestinal barrier.
Data set [7] is described as follows: Aqueous solubility of the compound in FaSSIF at pH 6.5 measured by dissolution tester. It is filed as physicochemical.
Data set [8] can be described thus: Aqueous solubility of the compound at pH 1.8. It is filed as physicochemical. The settings on record: buffer.
A short description of data set [9]: Aqueous solubility of the compound at pH 5. It is filed as physicochemical. The settings on record: buffer.
A short description of data set [10]: Aqueous solubility of the compound in buffer. Type of data set: physicochemical.

Description for physchem: Aqueous solubility of the compound in phosphate buffer at pH 6.8 measured after 72 hrs by UV-Vis spectrophotometer

As usually defined, the solubility is the dissolved amount per volume that the medium holds. Lower therefore signals a poorly soluble substance. As for `C=C[C@@H]1C[C@]1(NC(=O)[C@@H]1C[C@@H]2CN1C(=O)[C@H](C(C)(C)C)NC(=O)O[C@@H]1C[C@H]1CCCCCc1nc3ccc(OC)cc3nc1O2)C(=O)NS(=O)(=O)C1CC1` [GRAZOPREVIR ANHYDROUS], in data set [1], the solubility is below 7 µg/mL. Further, the Papp in [2] was 19 ×10⁻⁶ cm/s.
For the compound `COC(=O)N[C@H](C(=O)N1CCC[C@H]1c1nc2cc([C@H]3CC[C@H](c4cc5nc([C@@H]6CCCN6C(=O)[C@@H](NC(=O)OC)[C@@H](C)OC)[nH]c5cc4F)N3c3cc(F)c(N4CCC(c5ccc(F)cc5)CC4)c(F)c3)c(F)cc2[nH]1)[C@@H](C)OC` [PIBRENTASVIR], in data set [3], the Papp is below 1 ×10⁻⁶ cm/s.
`Cc1cc(C#N)cc(C)c1Oc1nc(Nc2ccc(C#N)cc2)nc(N)c1Br` [ETRAVIRINE] showed a solubility in [4] below 1 µg/mL.
In data set [4], `C=CC[C@@H]1/C=C(\C)C[C@H](C)C[C@H](OC)[C@H]2O[C@@](O)(C(=O)C(=O)N3CCCC[C@H]3C(=O)O[C@H](/C(C)=C/[C@@H]3CC[C@@H](O)[C@H](OC)C3)[C@H](C)[C@@H](O)CC1=O)[C@H](C)C[C@@H]2OC` [TACROLIMUS ANHYDROUS] gave a solubility of 1.3 µg/mL (≈ 1.62 µM). Further, the Papp in data set [5] is 18 ×10⁻⁶ cm/s.
In the data set “physchem”, `CCC[C@H](NC(=O)[C@@H]1[C@H]2CCC[C@H]2CN1C(=O)[C@@H](NC(=O)[C@@H](NC(=O)c1cnccn1)C1CCCCC1)C(C)(C)C)C(=O)C(=O)NC1CC1` came in with a solubility at 72 h of 4.7 µg/mL (≈ 6.91 µM). Moreover, in [6], the Papp is above 4.4 ×10⁻⁶ cm/s.
In the case of `CCCS(=O)(=O)Nc1ccc(F)c(C(=O)c2c[nH]c3ncc(-c4ccc(Cl)cc4)cc23)c1F` [VEMURAFENIB], the Papp in [6] worked out at 2.9 ×10⁻⁶ cm/s. The solubility in data set [7] worked out at 2 µg/mL (≈ 4.08 µM).
In the case of `COC(=O)N[C@H](C(=O)N1CCC[C@H]1c1nc(-c2ccc3c(c2)O[C@@H](c2ccccc2)n2c-3cc3cc(-c4c[nH]c([C@@H]5CCCN5C(=O)[C@@H](NC(=O)OC)C(C)C)n4)ccc32)c[nH]1)C(C)C` [ELBASVIR], the solubility is above 5 µg/mL in data set [8] and 50 µg/mL (≈ 56.7 µM) in data set [9]. Besides, the Papp in data set [3] worked out at 0.8 ×10⁻⁶ cm/s.
For the compound `CC(C)c1nc(CN(C)C(=O)N[C@H](C(=O)N[C@@H](Cc2ccccc2)C[C@H](O)[C@H](Cc2ccccc2)NC(=O)OCc2cncs2)C(C)C)cs1` [RITONAVIR], the Papp in [6] came to 20 ×10⁻⁶ cm/s.
`CC(C)(C)c1cc(C(C)(C)C)c(NC(=O)c2c[nH]c3ccccc3c2=O)cc1O` [IVACAFTOR] returned a solubility in data set [10] below 0.05 µg/mL.
Consider `Cc1ccc(-n2nccn2)c(C(=O)N2CCN(c3nc4cc(Cl)ccc4o3)CC[C@H]2C)c1` [SUVOREXANT], for which the solubility in [1] is 9 µg/mL (≈ 20 µM). The Papp in [2] is 22.8 ×10⁻⁶ cm/s.
